Read-outs that look alike come from different tables or passages of the source.
Columns and labels:
5-HT2A receptor = 5-HT2A receptor (Homo sapiens, UniProt P28223); experiment: biochemical; format: binding; set-up: expressed in transfected cells; host or cells: HEK293, stably transfected; settings: [3H]ketanserin 1 nM; HEK293 stable cell line; 1 h, 25 °C
Protocol: Affinity of the test compounds for the 5-HT2A receptor was determined in radioligand binding experiments with [^3H]ketanserin by WuXi AppTec (Hong Kong) Limited, using methods adapted from the literature and under conditions described in Table 1.

in vitro [1] = format: in vitro ADME, mouse; settings: MLM (male CD-1) 0.50 mg/mL, NADPH 1 mM, 1 μM compound, pH 7.4, 37° C., 60 min; for microsomal CLint / half-life: mouse, microsomes; for microsomal CLint: read-out: Intrinsic clearance (Clint); for half-life: read-out: half-life (t1/2)
Source text: MLM Stability Pooled MLM from male CD-1 mice (BIOIVT M00501) were used.

in vitro [2] = format: in vitro ADME, rat; settings: RLM (male Sprague-Dawley) 0.50 mg/mL, NADPH 1 mM, 1 μM compound, pH 7.4, 37° C., 60 min; for microsomal CLint / half-life: rat, microsomes; for microsomal CLint: read-out: Intrinsic clearance (Clint); for half-life: read-out: half-life (t1/2)
Source text: RLM Stability Pooled RLM from male Sprague-Dawley rats (Xenotech R1000) were used.

in vitro [3] = format: in vitro ADME, human; settings: HLM 0.50 mg/mL, NADPH 1 mM, 1 μM compound, pH 7.4, 37° C., 60 min; for microsomal CLint / half-life: human, microsomes; for microsomal CLint: read-out: Intrinsic clearance (Clint); for half-life: read-out: half-life (t1/2)

Sequence of 5-HT2A receptor (P28223 whole entry): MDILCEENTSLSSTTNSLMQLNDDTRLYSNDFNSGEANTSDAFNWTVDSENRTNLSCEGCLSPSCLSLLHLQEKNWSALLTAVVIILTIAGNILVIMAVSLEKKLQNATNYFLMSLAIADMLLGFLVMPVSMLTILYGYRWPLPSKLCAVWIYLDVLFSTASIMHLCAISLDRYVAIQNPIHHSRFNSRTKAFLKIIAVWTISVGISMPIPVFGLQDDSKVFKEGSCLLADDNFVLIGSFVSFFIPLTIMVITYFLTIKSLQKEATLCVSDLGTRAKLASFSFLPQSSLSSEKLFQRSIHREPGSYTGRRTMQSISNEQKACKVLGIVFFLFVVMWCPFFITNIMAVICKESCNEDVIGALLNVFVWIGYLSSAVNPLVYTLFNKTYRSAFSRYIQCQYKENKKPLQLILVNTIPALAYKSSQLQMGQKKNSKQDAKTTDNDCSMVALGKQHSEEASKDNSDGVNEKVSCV

CCN(CC)C(=O)[C@H]1C=C2c3cccc4[nH]cc(c34)C[C@H]2N(Cc2cccc(F)c2)C1 [Compound 52a, (6aR,9S)—N,N-diethyl-7-(3-fluorobenzyl)-4,6,6a,7,8,9-hexahydroindolo[4,3-fg]quinoline-9-carboxamide]
Ki (5-HT2A receptor): > 1230 nM

CCN(CC)C(=O)[C@H]1C=C2c3cccc4[nH]cc(c34)C[C@H]2N(Cc2ccc(F)c(F)c2)C1 [Compound 54a, (6aR,9S)-7-(3,4-difluorobenzyl)-N,N-diethyl-4,6,6a,7,8,9-hexahydroindolo[4,3-fg]quinoline-9-carboxamide]
Ki (5-HT2A receptor): 289 nM

[2H]C([2H])([2H])Oc1cccc(CN2C[C@H](C(=O)N(CC)CC)C=C3c4cccc5[nH]cc(c45)C[C@H]32)c1 [Compound 56, (6aR,9R)—N,N-diethyl-7-(3-(methoxy-d3)benzyl)-4,6,6,7,8,9-hexahydroindolo[4,3-fg]quinoline-9-carboxamide]
Intrinsic clearance (Clint) (in vitro [1]): 223.3 µL/min/mg
half-life (t1/2) (in vitro [1]): 6.2 min
Intrinsic clearance (Clint) (in vitro [2]): 224.5 µL/min/mg
half-life (t1/2) (in vitro [2]): 6.2 min
Intrinsic clearance (Clint) (in vitro [3]): 113.3 µL/min/mg
half-life (t1/2) (in vitro [3]): 12.2 min

[2H]C([2H])(c1cccc(OC)c1)N1C[C@@H](C(=O)N(CC)CC)C=C2c3cccc4[nH]cc(c34)C[C@H]21 [Compound 68a, (6aR,9S)—N,N-diethyl-7-((3-methoxyphenyl)methyl-d2)-4,6,6a,7,8,9-hexahydroindolo[4,3-fg]quinoline-9-carboxamide]
Ki (5-HT2A receptor): > 1230 nM

CCN(CC)C(=O)[C@@H]1C=C2c3cccc4[nH]cc(c34)C[C@H]2N(Cc2cnco2)C1 [Compound 75, (6aR,9R)—N,N-diethyl-7-(oxazol-5-ylmethyl)-4,6,6a,7,8,9-hexahydroindolo[4,3-fg]quinoline-9-carboxamide]
microsomal CLint (in vitro [1]): 83.1 µL/min/mg
half-life (in vitro [1]): 16.7 min
microsomal CLint (in vitro [2]): 56.3 µL/min/mg
half-life (in vitro [2]): 24.6 min
Ki (5-HT2A receptor): 12.8 nM
microsomal CLint (in vitro [3]): 35 µL/min/mg
half-life (in vitro [3]): 39.6 min

O=C([C@H]1C=C2c3cccc4[nH]cc(c34)C[C@H]2N(Cc2ccccc2)C1)N1CCCC1 [Compound 84a, ((6aR,9S)-7-benzyl-4,6,6a,7,8,9-hexahydroindolo[4,3-fg]quinolin-9-yl)(pyrrolidin-1-yl)methanone]
microsomal CLint (in vitro [1]): 784 µL/min/mg
half-life (in vitro [1]): 1.8 min
microsomal CLint (in vitro [2]): 257 µL/min/mg
half-life (in vitro [2]): 5.4 min
Ki (5-HT2A receptor): > 1230 nM
microsomal CLint (in vitro [3]): 154 µL/min/mg
half-life (in vitro [3]): 9 min

CCN(C)C(=O)[C@H]1C=C2c3cccc4[nH]cc(c34)C[C@H]2N(Cc2ccccc2)C1 [Compound 85a, (6aR,9S)-7-benzyl-N-ethyl-N-methyl-4,6,6a,7,8,9-hexahydroindolo[4,3-fg]quinoline-9-carboxamide]
microsomal CLint (in vitro [1]): 848 µL/min/mg
half-life (in vitro [1]): 1.6 min
microsomal CLint (in vitro [2]): 400 µL/min/mg
half-life (in vitro [2]): 3.5 min
Ki (5-HT2A receptor): 516 nM
microsomal CLint (in vitro [3]): 156 µL/min/mg
half-life (in vitro [3]): 8.9 min

CCCN(CC)C(=O)[C@H]1C=C2c3cccc4[nH]cc(c34)C[C@H]2N(Cc2ccccc2)C1 [Compound 86a, (6aR,9S)-7-benzyl-N-ethyl-N-propyl-4,6,6a,7,8,9-hexahydroindolo[4,3-fg]quinoline-9-carboxamide]
microsomal CLint (in vitro [1]): 1010 µL/min/mg
half-life (in vitro [1]): 1.4 min
microsomal CLint (in vitro [2]): 330 µL/min/mg
half-life (in vitro [2]): 4.2 min
Ki (5-HT2A receptor): 671 nM
microsomal CLint (in vitro [3]): 95.2 µL/min/mg
half-life (in vitro [3]): 14.6 min

C[C@H]1C[C@H](C)N1C(=O)[C@H]1C=C2c3cccc4[nH]cc(c34)C[C@H]2N(Cc2ccccc2)C1 [Compound 87a, ((6aR,9S)-7-benzyl-4,6,6a,7,8,9-hexahydroindolo[4,3-fg]quinolin-9-yl)((2S,4S)-2,4-dimethylazetidin-1-yl)methanone]
Ki (5-HT2A receptor): 1140 nM

CC[C@@H](C)NC(=O)[C@H]1C=C2c3cccc4[nH]cc(c34)C[C@H]2N(Cc2ccccc2)C1 [Compound 88a, (6aR,9S)-7-benzyl-N—((R)-sec-butyl)-4,6,6a,7,8,9-hexahydroindolo[4,3-fg]quinoline-9-carboxamide]
microsomal CLint (in vitro [1]): 837 µL/min/mg
half-life (in vitro [1]): 1.7 min
microsomal CLint (in vitro [2]): 830 µL/min/mg
half-life (in vitro [2]): 1.7 min
Ki (5-HT2A receptor): 191 nM
microsomal CLint (in vitro [3]): 302 µL/min/mg
half-life (in vitro [3]): 4.6 min

COc1cccc(CN2C[C@H](C(=O)N3CCCC3)C=C3c4cccc5[nH]cc(c45)C[C@H]32)c1 [Compound 91, ((6aR,9R)-7-(3-methoxybenzyl)-4,6,6a,7,8,9-hexahydroindolo[4,3-fg]quinolin-9-yl)(pyrrolidin-1-yl)methanone]
Ki (5-HT2A receptor): 128 nM

COc1cccc(CN2C[C@@H](C(=O)N3CCCC3)C=C3c4cccc5[nH]cc(c45)C[C@H]32)c1 [Compound 91a, ((6aR,9S)-7-(3-methoxybenzyl)-4,6,6a,7,8,9-hexahydroindolo[4,3-fg]quinolin-9-yl)(pyrrolidin-1-yl)methanone]
Ki (5-HT2A receptor): > 1230 nM

CCN(C)C(=O)[C@H]1C=C2c3cccc4[nH]cc(c34)C[C@H]2N(Cc2cccc(OC)c2)C1 [Compound 92a, (6aR,9S)—N-ethyl-7-(3-methoxybenzyl)-N-methyl-4,6,6a,7,8,9-hexahydroindolo[4,3-fg]quinoline-9-carboxamide]
Ki (5-HT2A receptor): > 1230 nM

CCCN(CC)C(=O)[C@H]1C=C2c3cccc4[nH]cc(c34)C[C@H]2N(Cc2cccc(OC)c2)C1 [Compound 93a, (6aR,9S)—N-ethyl-7-(3-methoxybenzyl)-N-propyl-4,6,6a,7,8,9-hexahydroindolo[4,3-fg]quinoline-9-carboxamide]
Ki (5-HT2A receptor): 230 nM

COc1cccc(CN2C[C@@H](C(=O)N3[C@@H](C)C[C@@H]3C)C=C3c4cccc5[nH]cc(c45)C[C@H]32)c1 [Compound 94a, ((2S,4S)-2,4-dimethylazetidin-1-yl)((6aR,9S)-7-(3-methoxybenzyl)-4,6,6a,7,8,9-hexahydroindolo[4,3-fg]quinolin-9-yl)methanone]
Ki (5-HT2A receptor): 1210 nM

CC[C@@H](C)NC(=O)[C@H]1C=C2c3cccc4[nH]cc(c34)C[C@H]2N(Cc2ccccc2)C1 [Compound 95a, (6aR,9S)-7-benzyl-N—((R)-sec-butyl)-4,6,6a,7,8,9-hexahydroindolo[4,3-fg]quinoline-9-carboxamide]
Ki (5-HT2A receptor): 123 nM

[2H]C(c1cccc(OC)c1)N1C[C@H](C(=O)N(CC)CC)C=C2c3cccc4[nH]cc(c34)C[C@H]21 (stereo partly drawn) [Compound 96, (6aR,9R)—N,N-diethyl-7-((3-methoxyphenyl)methyl-d)-4,6,6a,7,8,9-hexahydroindolo[4,3-fg]quinoline-9-carboxamide]
Ki (5-HT2A receptor): 3.99 nM

[2H]C(c1cccc(OC)c1)N1C[C@@H](C(=O)N(CC)CC)C=C2c3cccc4[nH]cc(c34)C[C@H]21 (stereo partly drawn) [Compound 96a, (6aR,9S)—N,N-diethyl-7-((3-methoxyphenyl)methyl-d)-4,6,6a,7,8,9-hexahydroindolo[4,3-fg]quinoline-9-carboxamide]
Ki (5-HT2A receptor): 1000 nM

CCN(CC)C(=O)[C@H]1C=C2c3cccc4[nH]cc(c34)C[C@H]2N(Cc2cccc(C)c2)C1 [Compound 98a, (6aR,9S)—N,N-diethyl-7-(3-methylbenzyl)-4,6,6a,7,8,9-hexahydroindolo[4,3-fg]quinoline-9-carboxamide]
Ki (5-HT2A receptor): 910 nM

CCN(CC)C(=O)[C@H]1C=C2c3cccc4[nH]cc(c34)C[C@H]2N(Cc2ccccc2C)C1 [Compound 99a, (6aR,9S)—N,N-diethyl-7-(2-methylbenzyl)-4,6,6a,7,8,9-hexahydroindolo[4,3-fg]quinoline-9-carboxamide]
Ki (5-HT2A receptor): 802 nM

CCN(CC)C(=O)[C@H]1C=C2c3cccc4[nH]cc(c34)C[C@H]2N(Cc2ccc3ccccc3c2)C1 [Compound 100a, (6aR,9S)—N,N-diethyl-7-(naphthalen-2-ylmethyl)-4,6,6a,7,8,9-hexahydroindolo[4,3-fg]quinoline-9-carboxamide]
Ki (5-HT2A receptor): > 1230 nM

CCN(CC)C(=O)[C@H]1C=C2c3cccc4[nH]cc(c34)C[C@H]2N(Cc2cccc3ccccc23)C1 [Compound 101a, (6aR,9S)—N,N-diethyl-7-(naphthalen-1-ylmethyl)-4,6,6a,7,8,9-hexahydroindolo[4,3-fg]quinoline-9-carboxamide]
Ki (5-HT2A receptor): 750 nM

CN(C)C(=O)[C@H]1C=C2c3cccc4[nH]cc(c34)C[C@H]2N(Cc2ccccc2)C1 [Compound 102a, (6aR,9S)-7-benzyl-N,N-dimethyl-4,6,6a,7,8,9-hexahydroindolo[4,3-fg]quinoline-9-carboxamide]
Ki (5-HT2A receptor): 349 nM

CCN(C)C(=O)[C@H]1C=C2c3cccc4[nH]cc(c34)C[C@H]2N(CC2CCCC2)C1 [Compound 103a, (6aR,9S)-7-(cyclopentylmethyl)-N-ethyl-N-methyl-4,6,6a,7,8,9-hexahydroindolo[4,3-fg]quinoline-9-carboxamide]
Ki (5-HT2A receptor): 511 nM

CN1C[C@H](C(=O)N2CCCC2)C=C2c3cccc4[nH]cc(c34)C[C@H]21 [Int22]
Intrinsic clearance (Clint) (in vitro [3]): <9.6 µL/min/mg
half-life (t1/2) (in vitro [3]): >145 min
